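GI50 = concentration required for 50% inhibition of growth. TGI: concentration producing complete growth inhibition.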
Assays:
Test in all cases: NCI tumour cell line growth inhibition, 384-well format
786-0 renal = system: 786-0 renal
A498 renal = system: A498 renal
A549 NSCLC = system: A549 NSCLC
ACHN renal = system: ACHN renal
BT-549 breast = system: BT-549 breast
CAKI-1 renal = system: CAKI-1 renal
CCRF-CEM leukemia = system: CCRF-CEM leukemia
COLO 205 colon = system: COLO 205 colon
DU-145 prostate = system: DU-145 prostate
EKVX NSCLC = system: EKVX NSCLC
HCC-2998 colon = system: HCC-2998 colon
HCT-116 colon = system: HCT-116 colon
HCT-15 colon = system: HCT-15 colon
HL-60(TB) leukemia = system: HL-60(TB) leukemia
HOP-62 NSCLC = system: HOP-62 NSCLC
HOP-92 NSCLC = system: HOP-92 NSCLC
HS 578T breast = system: HS 578T breast
HT29 colon = system: HT29 colon
K-562 leukemia = system: K-562 leukemia
KM12 colon = system: KM12 colon
LOX IMVI melanoma = system: LOX IMVI melanoma
M14 melanoma = system: M14 melanoma
MALME-3M melanoma = system: MALME-3M melanoma
MDA-MB-231 breast = system: MDA-MB-231 breast
MDA-MB-435 melanoma = system: MDA-MB-435 melanoma
MOLT-4 leukemia = system: MOLT-4 leukemia
NCI-H226 lung = system: NCI-H226 lung
NCI-H23 lung = system: NCI-H23 lung
NCI-H322M lung = system: NCI-H322M lung
NCI-H460 NSCLC = system: NCI-H460 NSCLC
NCI-H522 lung = system: NCI-H522 lung
NCI/ADR-RES ovarian = system: NCI/ADR-RES ovarian
OVCAR-3 ovarian = system: OVCAR-3 ovarian
OVCAR-4 ovarian = system: OVCAR-4 ovarian
OVCAR-5 ovarian = system: OVCAR-5 ovarian
PC-3 prostate = system: PC-3 prostate
RPMI-8226 leukemia = system: RPMI-8226 leukemia
RXF 393 renal = system: RXF 393 renal
SF-268 CNS = system: SF-268 CNS
SF-295 CNS = system: SF-295 CNS
SF-539 CNS = system: SF-539 CNS
SK-MEL-2 melanoma = system: SK-MEL-2 melanoma
SK-MEL-28 melanoma = system: SK-MEL-28 melanoma
SK-MEL-5 melanoma = system: SK-MEL-5 melanoma
SK-OV-3 ovarian = system: SK-OV-3 ovarian
SN12C renal = system: SN12C renal
SNB-19 CNS = system: SNB-19 CNS
SNB-75 CNS = system: SNB-75 CNS
SR leukemia = system: SR leukemia
SW-620 colon = system: SW-620 colon
T-47D breast = system: T-47D breast
U251 glioblastoma = system: U251 glioblastoma
UACC-257 melanoma = system: UACC-257 melanoma
UACC-62 melanoma = system: UACC-62 melanoma
UO-31 renal = system: UO-31 renal

C[C@@H](NC(=O)/C(C#N)=C/c1ccc([N+](=O)[O-])cc1)c1ccccc1
GI50 ([…]-0 renal): 1.72 µM | TGI (786-0 renal): 3.21 µM | GI50 (A498 renal): 1.91 µM | TGI (A498 renal): 3.54 µM | GI50 (A549 NSCLC): 3.04 µM | TGI (A549 NSCLC): 8.55 µM | GI50 (ACHN renal): 1.79 µM | TGI (ACHN renal): 3.25 µM | GI50 (BT-549 breast): 1.85 µM | TGI (BT-549 breast): 3.42 µM | GI50 (CAKI-1 renal): 1.72 µM | TGI (CAKI-1 renal): 3.32 µM | GI50 (CCRF-CEM leukemia): 1.64 µM | TGI (CCRF-CEM leukemia): 3.02 µM | GI50 (COLO 205 colon): 1.71 µM | TGI (COLO 205 colon): 3.11 µM | GI50 (DU-145 prostate): 3.2 µM | TGI (DU-145 prostate): 9.86 µM | GI50 (EKVX NSCLC): 1.91 µM | TGI (EKVX NSCLC): 3.55 µM | GI50 (HCC-2998 colon): 1.14 µM | TGI (HCC-2998 colon): 2.42 µM | GI50 (HCT-116 colon): 2.59 µM | TGI (HCT-116 colon): 5.95 µM | GI50 (HCT-15 colon): 1.72 µM | TGI (HCT-15 colon): 3.24 µM | GI50 (HL-60(TB) leukemia): 1.78 µM | TGI (HL-60(TB) leukemia): 3.18 µM | GI50 (HOP-62 NSCLC): 2.4 µM | TGI (HOP-62 NSCLC): 5.77 µM | GI50 (HOP-92 NSCLC): 3.22 µM | TGI (HOP-92 NSCLC): 12.1 µM | GI50 (HS 578T breast): 1.85 µM | TGI (HS 578T breast): 3.41 µM | GI50 (HT29 colon): 1.82 µM | TGI (HT29 colon): 3.25 µM | GI50 (K-562 leukemia): 1.85 µM | TGI (K-562 leukemia): 4.04 µM | GI50 (KM12 colon): 1.9 µM | TGI (KM12 colon): 3.79 µM | GI50 (LOX IMVI melanoma): 1.93 µM | TGI (LOX IMVI melanoma): 3.49 µM | GI50 (M14 melanoma): 2.37 µM | TGI (M14 melanoma): 5.7 µM | GI50 (MALME-3M melanoma): 2.29 µM | TGI (MALME-3M melanoma): 4.6 µM | GI50 (MDA-MB-231 breast): 3.03 µM | TGI (MDA-MB-231 breast): 7.47 µM | GI50 (MDA-MB-435 melanoma): 3.26 µM | TGI (MDA-MB-435 melanoma): 10.4 µM | GI50 (MOLT-4 leukemia): 1.5 µM | TGI (MOLT-4 leukemia): 2.85 µM | GI50 (NCI-H226 lung): 2.04 µM | TGI (NCI-H226 lung): 4.28 µM | GI50 (NCI-H23 lung): 1.83 µM | TGI (NCI-H23 lung): 3.39 µM | GI50 (NCI-H322M lung): 1.98 µM | TGI (NCI-H322M lung): 3.82 µM | GI50 (NCI-H460 NSCLC): 1.74 µM | TGI (NCI-H460 NSCLC): 3.24 µM | GI50 (NCI-H522 lung): 0.271 µM | TGI (NCI-H522 lung): 0.964 µM | GI50 (NCI/ADR-RES ovarian): 2.08 µM | TGI (NCI/ADR-RES ovarian): 4.65 µM | GI50 (OVCAR-3 ovarian): 1.61 µM | TGI (OVCAR-3 ovarian): 3.12 µM | GI50 (OVCAR-4 ovarian): 1.73 µM | TGI (OVCAR-4 ovarian): 3.3 µM | GI50 (OVCAR-5 ovarian): 2.57 µM | TGI (OVCAR-5 ovarian): 6.52 µM | GI50 (PC-3 prostate): 2 µM | TGI (PC-3 prostate): 3.93 µM | GI50 (RPMI-8226 leukemia): 1.7 µM | TGI (RPMI-8226 leukemia): 3.09 µM | GI50 (RXF 393 renal): 1.72 µM | TGI (RXF 393 renal): 3.15 µM | GI50 (SF-268 CNS): 2.23 µM | TGI (SF-268 CNS): 5.52 µM | GI50 (SF-295 CNS): 1.94 µM | TGI (SF-295 CNS): 3.85 µM | GI50 (SF-539 CNS): 2.18 µM | TGI (SF-539 CNS): 4.3 µM | GI50 (SK-MEL-2 melanoma): 2.02 µM | TGI (SK-MEL-2 melanoma): 3.57 µM | GI50 (SK-MEL-28 melanoma): 3.48 µM | TGI (SK-MEL-28 melanoma): 9.82 µM | GI50 (SK-MEL-5 melanoma): 2.09 µM | TGI (SK-MEL-5 melanoma): 3.79 µM | GI50 (SK-OV-3 ovarian): 2.19 µM | TGI (SK-OV-3 ovarian): 4.54 µM | GI50 (SN12C renal): 2.01 µM | TGI (SN12C renal): 4.19 µM | GI50 (SNB-19 CNS): 2.33 µM | TGI (SNB-19 CNS): 5.78 µM | GI50 (SNB-75 CNS): 1.76 µM | TGI (SNB-75 CNS): 3.24 µM | GI50 (SR leukemia): 1.28 µM | TGI (SR leukemia): 2.58 µM | GI50 (SW-620 colon): 1.88 µM | TGI (SW-620 colon): 3.39 µM | GI50 (T-47D breast): 2.75 µM | TGI (T-47D breast): 5.85 µM | GI50 (U251 glioblastoma): 1.74 µM | TGI (U251 glioblastoma): 3.26 µM | GI50 (UACC-257 melanoma): 3.39 µM | TGI (UACC-257 melanoma): 9.81 µM | GI50 (UACC-62 melanoma): 1.82 µM | TGI (UACC-62 melanoma): 3.51 µM | GI50 (UO-31 renal): 1.34 µM | TGI (UO-31 renal): 2.66 µM
